Measured values: PubChem BioAssay (NCI)
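How tested: cells in 96-well plates exposed to compound for 48 hours at five concentrations. GI50 is the concentration that inhibits growth by half. The concentration for full growth arrest is given as TGI.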

What was measured:
Assay in all cases: inhibition of tumour cell growth, NCI panel, 48 h; in the data active = GI50 below about 0.43 µM; inactive = the rest
786-0 renal = test system: 786-0 renal
A498 renal = test system: A498 renal
A549 NSCLC = test system: A549 NSCLC
ACHN renal = test system: ACHN renal
BT-549 breast = test system: BT-549 breast
CAKI-1 renal = test system: CAKI-1 renal
CCRF-CEM leukemia = test system: CCRF-CEM leukemia
COLO 205 colon = test system: COLO 205 colon
DU-145 prostate = test system: DU-145 prostate
EKVX NSCLC = test system: EKVX NSCLC
HCC-2998 colon = test system: HCC-2998 colon
HCT-116 colon = test system: HCT-116 colon
HCT-15 colon = test system: HCT-15 colon
HL-60(TB) leukemia = test system: HL-60(TB) leukemia
HOP-62 NSCLC = test system: HOP-62 NSCLC
HOP-92 NSCLC = test system: HOP-92 NSCLC
HS 578T breast = test system: HS 578T breast
HT29 colon = test system: HT29 colon
IGROV1 ovarian = test system: IGROV1 ovarian
K-562 leukemia = test system: K-562 leukemia
KM12 colon = test system: KM12 colon
LOX IMVI melanoma = test system: LOX IMVI melanoma
M14 melanoma = test system: M14 melanoma
MALME-3M melanoma = test system: MALME-3M melanoma
MCF7 breast = test system: MCF7 breast
MDA-MB-231 breast = test system: MDA-MB-231 breast
MDA-MB-435 = test system: MDA-MB-435
MDA-MB-468 breast = test system: MDA-MB-468 breast
MOLT-4 leukemia = test system: MOLT-4 leukemia
NCI-H226 lung = test system: NCI-H226 lung
NCI-H23 lung = test system: NCI-H23 lung
NCI-H460 lung = test system: NCI-H460 lung
NCI-H522 lung = test system: NCI-H522 lung
OVCAR-3 ovarian = test system: OVCAR-3 ovarian
OVCAR-4 ovarian = test system: OVCAR-4 ovarian
OVCAR-5 ovarian = test system: OVCAR-5 ovarian
OVCAR-8 ovarian = test system: OVCAR-8 ovarian
PC-3 prostate = test system: PC-3 prostate
RPMI-8226 leukemia = test system: RPMI-8226 leukemia
RXF 393 renal = test system: RXF 393 renal
SF-268 CNS = test system: SF-268 CNS
SF-295 CNS = test system: SF-295 CNS
SF-539 CNS = test system: SF-539 CNS
SK-MEL-28 melanoma = test system: SK-MEL-28 melanoma
SK-MEL-5 melanoma = test system: SK-MEL-5 melanoma
SK-OV-3 ovarian = test system: SK-OV-3 ovarian
SN12C renal = test system: SN12C renal
SNB-19 CNS = test system: SNB-19 CNS
SNB-75 CNS = test system: SNB-75 CNS
SR leukemia = test system: SR leukemia
SW-620 colon = test system: SW-620 colon
T-47D breast = test system: T-47D breast
TK-10 renal = test system: TK-10 renal
U251 CNS = test system: U251 CNS
UACC-257 melanoma = test system: UACC-257 melanoma
UACC-62 melanoma = test system: UACC-62 melanoma
UO-31 renal = test system: UO-31 renal

O=C(COc1ccc(NC(=O)Nc2ccc(Cl)cc2)cc1)N/N=C/c1ccccc1
43.1 µM: TGI (SK-MEL-28 melanoma)
24.9 µM: TGI (786-0 renal)
10.6 µM: TGI (MDA-MB-468 breast)
68.7 µM: TGI (OVCAR-4 ovarian)
11.1 µM: TGI (HOP-62 NSCLC)
21.2 µM: TGI (PC-3 prostate)
24.3 µM: TGI (SNB-75 CNS)
inactive: GI50 (786-0 renal) 6.26 µM | GI50 (A498 renal) 20.1 µM | GI50 (A549 NSCLC) 4.67 µM | GI50 (ACHN renal) 4.64 µM | GI50 (BT-549 breast) 4.41 µM | GI50 (CAKI-1 renal) 15 µM | GI50 (CCRF-CEM leukemia) 21.8 µM | GI50 (COLO 205 colon) 19 µM | GI50 (DU-145 prostate) 4.51 µM | GI50 (EKVX NSCLC) 6.09 µM | GI50 (HCC-2998 colon) 22.5 µM | GI50 (HCT-116 colon) 1.68 µM | GI50 (HCT-15 colon) 5.85 µM | GI50 (HL-60(TB) leukemia) > 100 µM | GI50 (HOP-62 NSCLC) 2.62 µM | GI50 (HOP-92 NSCLC) 3 µM | GI50 (HS 578T breast) 7.71 µM | GI50 (HT29 colon) 31.2 µM | GI50 (IGROV1 ovarian) 14.1 µM | GI50 (K-562 leukemia) 12.6 µM | GI50 (KM12 colon) > 100 µM | GI50 (LOX IMVI melanoma) 7.1 µM | GI50 (M14 melanoma) 5.02 µM | GI50 (MALME-3M melanoma) 4.44 µM | GI50 (MCF7 breast) 3.88 µM | GI50 (MDA-MB-231 breast) 8.57 µM | GI50 (MDA-MB-435) 3.76 µM | GI50 (MDA-MB-468 breast) 3.23 µM | GI50 (MOLT-4 leukemia) 59.5 µM | GI50 (NCI-H226 lung) 2.85 µM | GI50 (NCI-H23 lung) 4.21 µM | GI50 (NCI-H460 lung) 3.22 µM | GI50 (NCI-H522 lung) 7.74 µM | GI50 (OVCAR-3 ovarian) 4.15 µM | GI50 (OVCAR-4 ovarian) 3.34 µM | GI50 (OVCAR-5 ovarian) > 100 µM | GI50 (OVCAR-8 ovarian) 3.81 µM | GI50 (PC-3 prostate) 2.81 µM | GI50 (RPMI-8226 leukemia) 63.9 µM | GI50 (RXF 393 renal) 4.55 µM | GI50 (SF-268 CNS) 16.2 µM | GI50 (SF-295 CNS) 2.69 µM | GI50 (SF-539 CNS) 6.23 µM | GI50 (SK-MEL-28 melanoma) 3.87 µM | GI50 (SK-MEL-5 melanoma) 8.49 µM | GI50 (SK-OV-3 ovarian) 6.06 µM | GI50 (SN12C renal) 7.64 µM | GI50 (SNB-19 CNS) 4.42 µM | GI50 (SNB-75 CNS) 3.95 µM | GI50 (SR leukemia) 4.59 µM | GI50 (SW-620 colon) 6.03 µM | GI50 (T-47D breast) 8.22 µM | GI50 (TK-10 renal) 20.2 µM | GI50 (U251 CNS) 4.05 µM | GI50 (UACC-257 melanoma) 17.4 µM | GI50 (UACC-62 melanoma) 2.82 µM | GI50 (UO-31 renal) 86.4 µM
16 µM: TGI (HOP-92 NSCLC)
63.8 µM: TGI (TK-10 renal)
54.2 µM: TGI (HS 578T breast) | TGI (OVCAR-3 ovarian)
> 100 µM: TGI (A549 NSCLC) | TGI (CAKI-1 renal) | TGI (CCRF-CEM leukemia) | TGI (COLO 205 colon) | TGI (DU-145 prostate) | TGI (HCC-2998 colon) | TGI (HCT-15 colon) | TGI (HL-60(TB) leukemia) | TGI (HT29 colon) | TGI (IGROV1 ovarian) | TGI (K-562 leukemia) | TGI (KM12 colon) | TGI (LOX IMVI melanoma) | TGI (M14 melanoma) | TGI (MCF7 breast) | TGI (MDA-MB-435) | TGI (MOLT-4 leukemia) | TGI (NCI-H460 lung) | TGI (NCI-H522 lung) | TGI (OVCAR-5 ovarian) | TGI (OVCAR-8 ovarian) | TGI (RPMI-8226 leukemia) | TGI (SK-MEL-5 melanoma) | TGI (SN12C renal) | TGI (SW-620 colon) | TGI (T-47D breast) | TGI (U251 CNS) | TGI (UACC-257 melanoma) | TGI (UO-31 renal)
13.7 µM: TGI (SF-295 CNS) | TGI (UACC-62 melanoma)
50.9 µM: TGI (A498 renal)
37.6 µM: TGI (ACHN renal)
9.82 µM: TGI (NCI-H226 lung)
33.1 µM: TGI (SR leukemia)
20.7 µM: TGI (SNB-19 CNS)
25.8 µM: TGI (SK-OV-3 ovarian)
12.6 µM: TGI (HCT-116 colon)
90.8 µM: TGI (EKVX NSCLC)
27.4 µM: TGI (SF-539 CNS)
19 µM: TGI (RXF 393 renal)
71.7 µM: TGI (MALME-3M melanoma)
99.8 µM: TGI (SF-268 CNS)
47.6 µM: TGI (MDA-MB-231 breast)
25.9 µM: TGI (NCI-H23 lung)
56.2 µM: TGI (BT-549 breast)
